Reference: the METLIN SMRT retention time set (Domingo-Almenara et al. 2019)

Assay: gradient 5% acetonitrile 3 min, to 50% in 2 min, to 85% in 15 min, held 3 min, 100 µL/min
Conditions: column: Zorbax Extend-C18 2.1 x 50 mm; eluents: water / acetonitrile, 0.1% formic acid
Outline: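 Retention times come from adduct peaks that were picked computationally and then checked by hand. The standards, pure and pooled in mixtures of ~100 molecules, were run on a Zorbax Extend-C18 column (2.1 × 50 mm, 1.8 μm) at 100 μL/min with water and acetonitrile, each with 0.1% formic acid. Detection was by quadrupole time-of-flight mass spectrometry in positive and negative ionization mode, with a dead volume of 40 μL and a dwell volume of 900 μL.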

For `Cc1cc(C)cc(NS(=O)(=O)c2cc3c4c(c2)CCC(=O)N4CCC3)c1`, which RP-LC retention time is on record?
The RP-LC retention time was 874 s.

For `CCOc1ccc(NC(=O)Nc2nccn(-c3ccc(C(C)C)cc3)c2=O)cc1`, which RP-LC retention time is on record?
Its RP-LC retention time is 1160 s.

Which RP-LC retention time does the source give for `CCN1C(=O)C(CC(=O)NCc2ccncc2)Sc2ncccc21` (centres undefined) here?
The RP-LC retention time was 558 s.

Which RP-LC retention time does the source give for `CC(=O)N1c2ccc(S(=O)(=O)N3CCCC3)cc2CC1C(=O)NCc1ccc(N(C)C)cc1` (centres undefined) here?
The RP-LC retention time was 620 s.

For `CC(C)CN1N=C(C(=O)N2CCOCC2)S(=O)(=O)c2ccc(Cl)cc21`, which RP-LC retention time is on record?
The RP-LC retention time was 813 s.

For `Cc1ccc(N2CCN(C(=O)CN3CCN(Cc4cccc(Cl)c4)C3=O)CC2)cc1`, which RP-LC retention time is on record?
Its RP-LC retention time is 905 s.

Which RP-LC retention time does the source give for `COC(=O)c1ccc(NC(=O)Cc2csc3nc(-c4ccc(OC)c(OC)c4)cn23)cc1` here?
The RP-LC retention time was 734 s.

With `COC(=O)Cn1c(C)cc(=O)c2cccc(F)c21` as the compound, how does the RP-LC retention time read?
The RP-LC retention time was 549 s.

Which RP-LC retention time does the source give for `Cc1cccc(-c2nc(-c3ccc4c(c3)oc(=O)n4C)no2)c1` here?
The RP-LC retention time was 1130 s.

With `O=C(Cn1cnc2c(sc3nc(-c4ccccc4)ccc32)c1=O)NCc1ccc2c(c1)OCO2` as the compound, how does the RP-LC retention time read?
The RP-LC retention time was 950 s.

Which RP-LC retention time does the source give for `CCOc1ccc(C(=O)c2ccc(Cl)c(N)c2)cc1` here?
Its RP-LC retention time is 935 s.

Which RP-LC retention time does the source give for `CCNc1nc(C)cc(N2CCN(C(=O)Nc3cc(C)ccc3C)CC2)n1` here?
Its RP-LC retention time is 668 s.

With `COC(=O)c1cccc(NC(=O)NC(C(=O)N2CCc3ccccc32)C(C)C)c1` (centres undefined) as the compound, how does the RP-LC retention time read?
The RP-LC retention time was 610 s.

For `CC1CCN(S(=O)(=O)c2ccc(-c3nnc(C(=O)NCc4ccc(Cl)cc4)o3)cc2)CC1`, which RP-LC retention time is on record?
Its RP-LC retention time is 1120 s.

Which RP-LC retention time does the source give for `CC(=O)c1ccc(N2C(=O)Cn3cccc3C2C(=O)NC2CCC(C)CC2)cc1` (centres undefined) here?
The RP-LC retention time was 869 s.

With `Cc1sc(NC(=O)c2ccccc2Cl)nc1-c1ccc2c(c1)N(C)C(=O)CO2` as the compound, how does the RP-LC retention time read?
Its RP-LC retention time is 968 s.

With `O=C(NCCn1c(-c2ccc(F)cc2)nc2cccnc21)NCc1ccccc1` as the compound, how does the RP-LC retention time read?
The RP-LC retention time was 684 s.

Which RP-LC retention time does the source give for `CCc1ccc(S(=O)(=O)NCc2c(-c3ccccc3)nc3sc(CC)nn23)cc1` here?
Its RP-LC retention time is 1020 s.

Which RP-LC retention time does the source give for `Cc1ccc(CNC(=O)CN2C(=O)C3CCCCN3c3ccc(S(=O)(=O)N4CCCC4)cc32)cc1` (centres undefined) here?
The RP-LC retention time was 966 s.

For `Cc1nc(C)c(C(=O)NC2CCN(c3ccc(=O)n(CCOc4ccccc4)n3)C2)s1` (centres undefined), which RP-LC retention time is on record?
The RP-LC retention time was 703 s.

Which RP-LC retention time does the source give for `Cc1ccc(CNC(=O)C2=C3CCCN3c3ccc(F)cc3S2(=O)=O)cc1` here?
Its RP-LC retention time is 909 s.

For `Cc1cccc(-n2c(=O)c3sccc3n(Cc3nc(-c4ccc(F)c(Cl)c4)no3)c2=O)c1`, which RP-LC retention time is on record?
The RP-LC retention time was 1100 s.

For `CCOC(=O)c1ccc(NC(=O)Cn2nc(N3CCCC(C)C3)c3ccccc3c2=O)cc1` (centres undefined), which RP-LC retention time is on record?
Its RP-LC retention time is 1200 s.

Which RP-LC retention time does the source give for `CCn1cnc(S(=O)(=O)N2CCC(C(=O)NCCc3ccc(OC)c(OC)c3)CC2)c1` here?
Its RP-LC retention time is 661 s.

For `Cc1cc(C)nc(N2CCN(c3cc(C)nc4c(C)c(-c5ccc(Cl)cc5)nn34)CC2)n1`, which RP-LC retention time is on record?
The RP-LC retention time was 1020 s.

With `CCCc1noc(-c2ccnc(-n3ncc(C(=O)N4CCN(CC)CC4)c3C)c2)n1` as the compound, how does the RP-LC retention time read?
The RP-LC retention time was 643 s.

For `CCc1nc2c(NC(=O)c3ccc(Cl)s3)cccn2n1`, which RP-LC retention time is on record?
The RP-LC retention time was 941 s.

Which RP-LC retention time does the source give for `CC(C)CN1CCn2cc(S(=O)(=O)N3CCN(c4ccccc4)CC3)cc2C1=O` here?
Its RP-LC retention time is 921 s.

With `CC(C)NC(=O)c1ccc(CN2CCN(Cc3ccc(F)cc3)C(=O)C2=O)cc1` as the compound, how does the RP-LC retention time read?
Its RP-LC retention time is 668 s.

With `Cc1ncc([N+](=O)[O-])n1CC(O)CCl` (centres undefined) as the compound, how does the RP-LC retention time read?
Its RP-LC retention time is 677 s.

With `Cc1noc(C)c1-c1ccc(S(=O)(=O)NCCC(C)C)cc1` as the compound, how does the RP-LC retention time read?
Its RP-LC retention time is 954 s.

Which RP-LC retention time does the source give for `COc1ccc(CCNC(=O)C2CCN(c3ncnc4c3oc3ccccc34)CC2)cc1OC` here?
The RP-LC retention time was 683 s.

For `CCCN(C(=O)c1cccc(OC)c1)c1nc(-c2ccccc2)cs1`, which RP-LC retention time is on record?
The RP-LC retention time was 1350 s.

Which RP-LC retention time does the source give for `Cc1cc(N2CCN(C(=O)Nc3ccc4c(c3)OCCO4)CC2)nc(N2CCOCC2)n1` here?
The RP-LC retention time was 609 s.

For `CN(C)C(=O)c1cn(C2CN(C(=O)c3cccc(C#N)c3)C2)nn1`, which RP-LC retention time is on record?
The RP-LC retention time was 613 s.

Which RP-LC retention time does the source give for `Cc1nn(-c2ccc(Cl)cc2)c(C)c1S(=O)(=O)N1CCC(C(=O)Nc2ccccc2F)CC1` here?
The RP-LC retention time was 1020 s.

For `O=C(c1ccsc1)N1CC(c2noc(C3CCCN3CC3CC3)n2)C1` (centres undefined), which RP-LC retention time is on record?
Its RP-LC retention time is 590 s.

For `CCc1ccccc1S(=O)(=O)N(C)CC1CCOCC1`, which RP-LC retention time is on record?
Its RP-LC retention time is 902 s.

Which RP-LC retention time does the source give for `O=C(c1ccccc1Br)N1CCc2nc(-c3ccc(F)cc3)ncc2C1` here?
Its RP-LC retention time is 1010 s.

With `COc1cc(Nc2nc(-c3nnn(-c4cc(Cl)ccc4OC)c3C)ns2)cc(OC)c1` as the compound, how does the RP-LC retention time read?
The RP-LC retention time was 1070 s.

With `COc1ccc(C2(C(=O)N[C@@H]3CN(S(C)(=O)=O)C[C@H]3CN(C)C)CC2)cc1` as the compound, how does the RP-LC retention time read?
The RP-LC retention time was 635 s.

With `Cc1cc(C)n2c(Nc3ccccc3C)c(-c3ccccc3)nc2n1` as the compound, how does the RP-LC retention time read?
The RP-LC retention time was 728 s.

For `CCC1CN2C=Nc3oc(C)c(C(=O)Nc4ccccc4OC)c3C2=N1` (centres undefined), which RP-LC retention time is on record?
Its RP-LC retention time is 668 s.

With `CCN1C(=O)COc2ccc(-c3noc(CNS(=O)(=O)c4ccc(Cl)cc4)n3)cc21` as the compound, how does the RP-LC retention time read?
The RP-LC retention time was 904 s.
